{
  "source": "paper PMC12689914",
  "about": "“Identification of a novel dual-targeting peptide inhibitor of SARS-CoV-2 RBD and NRP1 through structure-based virtual screening” (Frontiers in Pharmacology, 2025)",
  "system": "SARS-CoV-2 Omicron XBB.1.5 pseudovirus",
  "details": "Omicron XBB.1.5 pseudovirus, 48 h",
  "note": "Non-standard residues stand in square brackets, D forms with d. Residues, ends and D or L forms follow the SMILES beside them.",
  "data": [
    {"smiles": "CC(C)C[C@H](NC(=O)[C@H](CCC(=O)O)NC(=O)[C@H](C)NC(=O)[C@@H](N)CCC(=O)O)C(=O)N[C@H](CC(=O)O)C(=O)N[C@H](C(=O)N[C@@H](CO)C(=O)N[C@@H](CC(=O)O)C(=O)N[C@@H](C)C(=O)N[C@@H](Cc1ccccc1)C(=O)N[C@@H](Cc1ccc(O)cc1)C(=O)N[C@@H](CCCNC(=N)N)C(=O)N[C@@H](Cc1ccccc1)C(=O)N[C@@H](Cc1ccccc1)C(=O)N[C@@H](CCCNC(=N)N)C(=O)N[C@@H](CCCNC(=N)N)C(=O)N[C@@H](C)C(=O)N[C@@H](CCCNC(=N)N)C(=O)O)C(C)C", "note": "[Peptide-1] (H-EAEL[dD]VSDAFYRFFRRAR-OH; N-terminus and C-terminus assumed)", "values": [
      {"measurement": "EC50", "value": "620 ± 30", "unit": "nM"}
    ]}
  ]
}
